Reference: patent US20260347365A1, “COMPOUND FOR REGULATING AND CONTROLLING 15-PGDH ACTIVITY AND PREPARATION METHOD THEREFOR” (SCINNOHUB PHARMACEUTICAL CO.,LTD, priority 2023, published 2026)
Where two headings read alike, the source gives them in different places.

Molecular target: T1, 15-PGDH (Homo sapiens, UniProt P15428)
T1 construct: purchased Sino Biological Inc. 11205-H08E
T1 sequence (P15428 1-266): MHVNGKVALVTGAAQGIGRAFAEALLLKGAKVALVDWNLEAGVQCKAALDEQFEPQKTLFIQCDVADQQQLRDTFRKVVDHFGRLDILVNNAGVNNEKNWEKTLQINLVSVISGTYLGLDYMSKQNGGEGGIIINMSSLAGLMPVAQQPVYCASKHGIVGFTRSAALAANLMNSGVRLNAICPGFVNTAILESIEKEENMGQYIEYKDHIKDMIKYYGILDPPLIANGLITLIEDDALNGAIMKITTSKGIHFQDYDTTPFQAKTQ
Experiment: Detection of Activity of 15-PGDH Kinase (inhibition of 15-PGDH enzyme)
Format: biochemical
Procedure: • a. A solution of pH 7.5 containing 50 mM Tris-HCl and 0.01% Tween 20 was prepared with ultrapure water as a reaction buffer; • b. a 10 mM mother liquor of the compound to be tested was prepared with DMSO, and then the reaction buffer was used to dilute the mother liquor of the compound to be tested to obtain solution 1 of the compound to be tested at a concentration of 4000 nM, and then the solution 1 of the compound to be tested was serially diluted into solutions 2-10 of the compound to be tested at 9 concentrations with a gradient difference of three-fold. 5 μL of each concentration of solutions 1-10 of the compound to be tested was respectively taken and added into a 384-well plate as test wells; • c. 5 μL of the reaction buffer was added to the 384-well plate as positive control and blank control wells; • d. the reaction buffer was used to prepare a 15-PGDH protein solution at a concentration of 5 ng/μL, 5 μL of the 15-PGDH protein solution was taken and added to the test wells and positive control wells, and 5 μL of the reaction buffer was added to the blank control wells at the same time, then the plate was centrifuged at 2000 rpm for 30 seconds; • e. the reaction buffer was used to prepare 5 mM β-NAD and 2 mM PGF2α, respectively, which were mixed at 1:1 by volume to obtain a substrate mixture, 10 μL of the substrate mixture was taken and added to the test wells, positive control wells and blank control wells to start the reaction; • f. the fluorescence signal value (Ex/Em=340/450) of each well was detected continuously by using a multifunctional microplate reader.
• a) Continuous fluorescence signal values were analyzed by using the “kinetic calculations-slope calculation method” in the PHERAstar Data analysis software to obtain the slope of each test well; • b) the inhibition rate % was calculated by using the following formula:
inhibition rate %=[1−(slope of test well-signal value of positive control well)/(signal value of blank control well-average signal value of positive control well)]×100%. • c) calculation of IC50 and plotting of inhibition rate-dose curves: IC50 values were calculated by fitting compound concentrations and corresponding inhibition rates with a nonlinear regression (dose response-variable slope) via using GraphPad Prism 6.0.
The formula is shown below: Y=Bottom+(Top−Bottom)/(1+10^((Log IC50−X)*HillSlope)), wherein X is a log value of a concentration of the compound, and Y is inhibition rate %.

[1] = class symbols, substrates β-NAD and PGF2α, pH 7.5, fluorescence Ex/Em=340/450, read-out: IC50

SMILES: Cn1cc(-c2nc3cc(C(=O)N4CCCCC4)ccc3n3ccnc23)ccc1=O [Example 18]
- IC50 [1]: 10 to 20 nM

SMILES: CCOC(=O)c1cn2cc(-c3nc4cc(C(=O)N5CCCCC5)ccc4n4ccnc34)ccc2n1 [Example 30]
- IC50 [1]: 5 to 10 nM

SMILES: CC(C)C1CN2C(=N1)C(c1ccc3c(c1)CN(C)C3=O)=Nc1cc(C(=O)N3CCCCC3)ccc12 (centres unmarked) [Example 43]
- IC50 [1]: 5 to 10 nM

SMILES: O=C(c1ccc2c(c1)nc(-c1ccc3ocnc3c1)c1nccn12)N1CCCCC1 [Example 2, (4-(benzo[d]oxazol-5-yl)imidazo[1,2-a]quinoxalin-7-yl)(piperidin-1-yl)methanone]
- IC50: 2 to 5 nM

SMILES: CCOC(=O)c1ccc(-c2nc3cc(C(=O)N4CCCCC4)ccc3n3ccnc23)cc1 [Example 42]
- IC50 [1]: 5 to 10 nM

SMILES: Cn1ccc2cc(-c3nc4cc(C(=O)N5CCCCC5)ccc4c4nccn34)cnc21 [Example 62]
- IC50 [1]: < 2 nM

SMILES: Cc1nc2c3ccc(C(=O)N4CCCCC4)cc3nc(-c3ccc4c(c3)CN(C)C4=O)n2n1 [Example 77]
- IC50 [1]: < 2 nM

SMILES: Cn1ccc2cc(-c3nc4cc(C(=O)N5CCCCC5)ccc4n4ccnc34)ccc2c1=O [Example 20]
- IC50 [1]: < 2 nM

SMILES: O=C(c1ccc2c(c1)nc(-c1ccc3c(c1)OCCO3)n1ccnc21)N1CCCCC1 [Example 60]
- IC50 [1]: 5 to 10 nM

SMILES: O=C(c1ccc2c(c1)nc(-c1ccc3nccnc3c1)c1nccn12)N1CCCCC1 [Example 19]
- IC50 [1]: 5 to 10 nM

SMILES: CN1Cc2cc(-c3nc4cc(C(=O)N5CCCCC5)ccc4c4nccn34)ccc2C1=O [Example 46, 2-methyl-5-(8-(piperidine-1-carbonyl)imidazo[1,2-c]quinazolin-5-yl) isoindolin-1-one]
- IC50 [1]: 2 to 5 nM

SMILES: O=C(c1ccc2c(c1)nc(-c1ccc3[nH]c(=O)[nH]c3c1)c1nccn12)N1CCCCC1 [Example 29]
- IC50 [1]: < 2 nM

SMILES: CC1CN2C(=N1)C(c1ccc3c(c1)CN(C)C3=O)=Nc1cc(C(=O)N3CCCCC3)ccc12 (centres unmarked) [Example 36]
- IC50 [1]: < 2 nM

SMILES: Cn1ccc2cc(-c3nc4cc(C(=O)N5CCCCC5)ccc4n4ccnc34)cnc21 [Example 23]
- IC50 [1]: 2 to 5 nM

SMILES: CN1Cc2cc(-c3nc4cc(C(=O)N5CCCCC5)ccc4n4ccnc34)ccc2C1=O [Example 6]
- IC50 [1]: < 2 nM

SMILES: Cn1ncc2cc(-c3nc4cc(C(=O)N5CCCCC5)ccc4c4nccn34)ccc21 [Example 69]
- IC50 [1]: 2 to 5 nM

SMILES: Cn1cc2cc(-c3nc4cc(C(=O)N5CCCCC5)ccc4n4ccnc34)ccc2n1 [Example 21]
- IC50 [1]: < 2 nM

SMILES: CN1Cc2cc(-c3nc4cc(C(=O)N5CCCCC5)ccc4c4cccn34)ccc2C1=O [Example 80]
- IC50 [1]: < 2 nM

SMILES: CN1Cc2cc(-c3nc4cc(C(=O)N5CCCCC5)ccc4c4nc(C(F)(F)F)nn34)ccc2C1=O [Example 79]
- IC50 [1]: 2 to 5 nM

SMILES: O=C(c1ccc2c(c1)nc(-c1ccc3ncsc3c1)n1ccnc21)N1CCCCC1 [Example 54]
- IC50 [1]: < 2 nM

SMILES: CN(C)c1ncc(-c2nc3cc(C(=O)N4CCCCC4)ccc3c3nccn23)cn1 [Example 52]
- IC50 [1]: 5 to 10 nM

SMILES: Cn1ccc2cc(-c3nc4cc(C(=O)N5CCCCC5)ccc4c4nccn34)ccc2c1=O [Example 73]
- IC50 [1]: < 2 nM

SMILES: CN1Cc2cc(C3=Nc4cc(C(=O)N5CCCCC5)ccc4C4=NCCN34)ccc2C1=O [Example 82]
- IC50 [1]: 5 to 10 nM

SMILES: O=C(c1ccc2c(c1)nc(-c1ccc3ncnn3c1)c1nccn12)N1CCCCC1 [Example 27]
- IC50 [1]: 5 to 10 nM

SMILES: CN1Cc2cc(C3=Nc4cc(C(=O)N5CCCCC5)ccc4N4CCN=C34)ccc2C1=O [Example 35]
- IC50 [1]: < 2 nM

SMILES: CN1Cc2cc(-c3nc4cc(C(=O)N5CCCCC5)ccc4n4cnnc34)ccc2C1=O [Example 5, 2-methyl-5-(7-(piperidine-1-carbonyl)-[1,2,4]triazolo[4,3-a]quinoxalin-4-yl) isoindolin-1-one]
- IC50: 5 to 10 nM

SMILES: CC(C)c1nc2c3ccc(C(=O)N4CCCCC4)cc3nc(-c3ccc4c(c3)CN(C)C4=O)n2n1 [Example 78]
- IC50 [1]: 2 to 5 nM

SMILES: CN1Cc2cc(-c3nc4cc(C(=O)N5CCCCC5)ccc4c4ncnn34)ccc2C1=O [Example 76]
- IC50 [1]: < 2 nM

SMILES: O=C(c1ccc2c(c1)nc(-c1ccccc1)c1nccn12)N1CCC(F)(F)CC1 [Example 16]
- IC50 [1]: 100 to 1000 nM

SMILES: CN1Cc2cc(-c3nc4cc(C(=O)N5CCCC5)ccc4n4ccnc34)ccc2C1=O [Example 40]
- IC50 [1]: 50 to 100 nM

SMILES: CN1Cc2cc(C3=Nc4cc(C(=O)N5CCCCC5)ccc4N4CC5(CC5)N=C34)ccc2C1=O [Example 4, 2-methyl-5-(7′-(piperidine-1-carbonyl)-1′H-spiro[cyclopropane-1,2′-imidazo[1,2-a]quinoxaline]-4′-yl) isoindolin-1-one]
- IC50: < 2 nM

SMILES: O=C(c1ccc2c(c1)nc(-c1ccccc1)c1nccn12)N1CCOCC1 [Example 17]
- IC50 [1]: 100 to 1000 nM

SMILES: O=C(O)c1ccc(-c2nc3cc(C(=O)N4CCCCC4)ccc3n3ccnc23)cc1 [Example 33]
- IC50 [1]: < 2 nM

SMILES: N#Cc1ccc(-c2nc3cc(C(=O)N4CCCCC4)ccc3c3nccn23)cn1 [Example 50]
- IC50 [1]: 5 to 10 nM

SMILES: O=C(c1ccc2c(c1)nc(-c1ccc3nccn3c1)n1ccnc21)N1CCCCC1 [Example 59]
- IC50 [1]: 5 to 10 nM

SMILES: O=C(c1ccc2c(c1)nc(-c1ccc3c(c1)CCN3)n1ccnc21)N1CCCCC1 [Example 47]
- IC50 [1]: 2 to 5 nM

SMILES: O=C(c1ccc2c(c1)nc(-c1ccc3nccnc3c1)n1ccnc21)N1CCCCC1 [Example 67]
- IC50 [1]: 2 to 5 nM

SMILES: O=C1OCc2cc(-c3nc4cc(C(=O)N5CCCCC5)ccc4n4ccnc34)ccc21 [Example 31]
- IC50 [1]: 5 to 10 nM

SMILES: O=C(c1ccc2c(c1)nc(-c1cccnc1)n1ccnc21)N1CCCCC1 [Example 57]
- IC50 [1]: 2 to 5 nM

SMILES: CN1Cc2cc(C3=Nc4cc(C(=O)N5CCCCC5)ccc4N4CC(C(C)(C)C)N=C34)ccc2C1=O (centres unmarked) [Example 45]
- IC50 [1]: 5 to 10 nM

SMILES: Cc1cnc2c(-c3ccc4c(c3)CN(C)C4=O)nc3cc(C(=O)N4CCCCC4)ccc3n12 [Example 3, 2-methyl-5-(1-methyl-7-(piperidine-1-carbonyl)imidazo[1,2-a]quinoxalin-4-yl) isoindolin-1-one]
- IC50: 2 to 5 nM

SMILES: Nc1ncc(-c2nc3cc(C(=O)N4CCCCC4)ccc3c3nccn23)cn1 [Example 56]
- IC50 [1]: < 2 nM

SMILES: CN1Cc2cc(-c3nc4cc(C(=O)N5CCCCC5)ccc4c4ccnn34)ccc2C1=O [Example 81]
- IC50 [1]: < 2 nM

SMILES: O=C(c1ccc2c(c1)nc(-c1ccc3ncsc3c1)c1nccn12)N1CCCCC1 [Example 10]
- IC50 [1]: 5 to 10 nM

SMILES: CN1Cc2cc(C3=Nc4cc(C(=O)N5CCCCC5)ccc4N4CC(C)(C)N=C34)ccc2C1=O [Example 41]
- IC50 [1]: < 2 nM

SMILES: CC1CN=C2C(c3ccc4c(c3)CN(C)C4=O)=Nc3cc(C(=O)N4CCCCC4)ccc3N21 (centres unmarked) [Example 37]
- IC50 [1]: < 2 nM

SMILES: CC(C)CC1CN2C(=N1)C(c1ccc3c(c1)CN(C)C3=O)=Nc1cc(C(=O)N3CCCCC3)ccc12 (centres unmarked) [Example 44]
- IC50 [1]: 5 to 10 nM

SMILES: CN1Cc2cc(-c3nc4cc(C(=O)N5CCC(F)CC5)ccc4n4ccnc34)ccc2C1=O [Example 38]
- IC50 [1]: 2 to 5 nM

SMILES: Cn1cc(-c2nc3cc(C(=O)N4CCCCC4)ccc3c3nccn23)cn1 [Example 53]
- IC50 [1]: 2 to 5 nM

SMILES: Cn1ncc2cc(-c3nc4cc(C(=O)N5CCCCC5)ccc4n4ccnc34)ccc21 [Example 24]
- IC50 [1]: 2 to 5 nM

SMILES: Cc1cn2c(n1)c(-c1ccc3c(c1)CN(C)C3=O)nc1cc(C(=O)N3CCCCC3)ccc12 [Example 34]
- IC50 [1]: < 2 nM

SMILES: Nc1ncc(-c2nc3cc(C(=O)N4CCCCC4)ccc3n3ccnc23)cn1 [Example 7]
- IC50 [1]: 2 to 5 nM

SMILES: CCOC(=O)c1cc2cc(-c3nc4cc(C(=O)N5CCCCC5)ccc4c4nccn34)ccc2[nH]1 [Example 72]
- IC50 [1]: 5 to 10 nM

SMILES: CN1Cc2cc(-c3nc4ccc(C(=O)N5CCCCC5)cc4c4nccn34)ccc2C1=O [Example 75]
- IC50 [1]: 100 to 1000 nM

SMILES: Cn1ccc(-c2nc3cc(C(=O)N4CCCCC4)ccc3c3nccn23)cc1=O [Example 61]
- IC50 [1]: 5 to 10 nM

SMILES: O=C(c1ccc2c(c1)nc(-c1cncnc1)c1nccn12)N1CCCCC1 [Example 8]
- IC50 [1]: 5 to 10 nM
